Two compounds from patent publication US20170305882A1, “BENZYL SUBSTITUTED INDAZOLES AS BUB1 KINASE INHIBITORS” (Bayer Pharma Aktiengesellschaft, priority 2014, published 2017) can be followed below.

The target of experiment [1] is T1, (recombinant) catalytic domain of human Bub1 (amino acids 704-1085) (Homo sapiens, UniProt O43683).
T1 construct: catalytic domain of human Bub1 (amino acids 704-1085); 6xHis (N); made in house; host or cells: Hi5 insect cells
Briefly: Bub1 kinase assay (TR-FRET). Format: biochemical. Particulars: ATP 10 μM, 60 min reaction, pH 7.5; read-out: Biological Assay 1: Bub1 kinase assay median IC50.

Experiment [2] deals with HeLa human cervical tumor cells. The experiment is described as follows: Proliferation assay (HeLa cell line). The class given is cell-based. Particulars: 96 h, 4 days incubation, crystal violet, read-out: Biological Assay 2: Proliferation assay (HeLa cell line) median IC50. The source says: Human tumour cells were originally obtained from the American Type Culture Collection (ATCC), the Deutsche Sammlung von Mikroorganismen und Zellkulturen (DSMZ, German Collection of Microorganisms and Cell Cultures), or Epo GmbH Berlin.

Experiment [3] has the same test system. Briefly: Proliferation Assay (HeLa + Paclitaxel). The class given is cell-based. Conditions: 3 nM paclitaxel, test substance 92 hours; read-out: Biological Assay 3: Proliferation Assay (HeLa + Paclitaxel) IC50. The source says:
Proliferation Assay (HeLa+Paclitaxel):

For experiment [4], the system named is pre-induced phospho-histone 2A (kinase activity of Bub1). Briefly: H2A Abrogation-Assay (cell-based mechanistic assay, pre-treatment with Nocodazole). Particulars: Nocodazole 16 h, then test compound 1 h; read-out: Biological Assay 4:2: H2A Abrogation IC50. The source says:
Biological Assay 4.2: Abrogation-Assay
This assay measures the inhibition of histone 2A phosphorylation, which was induced by pre-treatment of the cells with Nocodazole, by a Bub1 kinase inhibitor.

The target in experiment [5] is T1, (recombinant) catalytic domain of human Bub1 (amino acids 704-1085). Briefly: Equilibrium probe competition assay (TR-FRET kinase binding assay). Particulars: read-out: IC50 (Assay 5, probe competition). The source says: Equilibrium Probe Competition Assay:
Bub1 binding affinity of compounds described in the present invention were quantified using a time-resolved fluorescence energy transfer (TR-FRET) kinase binding assay which measures displacement of the synthetic fluorescent probe 5-[({2-[2-({2-[1-(4-ethoxy-2,6-difluorobenzyl)-1H-indazol-3-yl]-4-(pyridin-4-ylamino)pyrimidin-5-yl}oxy)ethoxy]ethyl}carbamothioyl)amino]-2-(6-hydroxy-3-oxo-3H-xanthen-9-yl)benzoic acid (5-5-1) by the (recombinant) catalytic domain of human Bub1 (amino acids 704-1085). The enzyme was expressed in Hi5 insect cells with N-terminal 6×His/AviTag@ seqences, purified by affinity-(Ni-NTA) and size exclusion chromatography and site-specific biotinylated ex-vivo using a commercially available kit (Avidity).
In a typical assay 11 different concentrations of each compound (0.1 nM, 0.33 nM, 1.1 nM, 3.8 nM, 13 nM, 44 nM, ˜0.15 μM, ˜0.51 μM, ˜1.7 μM, 5.9 μM and 20 μM) were tested in duplicate within the same microtiter plate. To this end, 100-fold concentrated compound solutions (in DMSO) were made by serial dilution (1:3.4) of freshly prepared 2 mM stocks in a clear low volume 384-well source microtiter plate (Greiner Bio-One, Frickenhausen, Germany), from which 50 nl of compounds were transferred into a black low volume test microtiter plate from the same supplier. Subsequently 2 μL of a solution containing biotinylated Bub1 (the final concentration of Bub1 was adjusted depending on the activity of the enzyme lot in order to be within the linear dynamic range of the assay: typically ˜200 pM were used) and 1 nM Streptavidin Terbium Cryptate (Cisbio, No. 610SATLB) in aqueous assay buffer [50 mM Tris/HCl pH 7.5, 200 mM potassium chloride (KCl), 1.0 mM dithiothreitol (DTT), 0.1 mM sodium ortho-vanadate, 1% (v/v) glycerol, 0.01% (w/v) bovine serum albumine (BSA), 0.005% (v/v) Triton X-100 (Sigma), were added to the compounds in the test plate and the mixture was incubated for 15 min at 22′C to allow pre-equilibration of the putative enzyme-inhibitor complexes before the start of the probe competition reaction, which was initiated by the addition of 3 μL 1.67-fold concentrated solution (in assay buffer) of 5-5-1 (final concentration: 1.5 nM). The resulting mixture (5 μL final volume) was Incubated at 220 during 0, 15, 30, 60, 120, 240 and 1440 min. After each time point the resonance energy transfer from the Streptavidin Tb cryptate to the 3′,6′-dihydroxy-3H-spiro[2-benzofuran-1,9′-xanthen]-3-one moiety of 5-5-1 was measured in order to quantify the amount of fluorescent probe displaced by the test compounds. To this end, the fluorescence emissions at 520 nm and 490 nm after excitation at 330-350 nm were measured in a Pherastar FS TR-FRET plate reader, (BMG Lab technologies, Offenburg, Germany) and the ratio of the emissions (520 nm/490 nm) was taken as Indicator for the amount of Bub1/5-5-1 equilibrium complexes. The data were normalized using two sets of control wells for high-(=enzyme reaction without inhibitor=0%=Minimum inhibition) and low-(=all assay components without enzyme=100%=Maximum inhibition) Bub1 activity. IC50 values were calculated by fitting the normalized inhibition data to a 4-parameter logistic equation (Minimum, Maximum, IC50, Hill; Y=Max+(Min−Max)/(1+(X/IC50)Hill)).

In experiment [6] the test system is histone 2A phosphorylation (kinase activity of Bub1). Briefly: H2A Formation-Assay (cell-based mechanistic assay, co-treatment with Nocodazole). Conditions: 16 h, read-out: Biological Assay 4.1: H2A Formation IC50.

Regarding `CCOc1cc(F)c(Cn2nc(-c3ncc(OCCCO)c(Nc4ccnc(NC(C)=O)c4)n3)c3ccccc32)c(F)c1` [Example 2-1-5, N-[4-({2-[1-(4-ethoxy-2,6-difluorobenzyl)-1H-indazol-3-yl]-5-(3-hydroxypropoxy)pyrimidin-4-yl}amino)pyridin-2-yl]acetamide], the IC50 was 3.5 nM in experiment [1]; > 10000 nM in experiment [2]; 100 nM in experiment [3]; 4.4 nM in experiment [4]; 0.59 nM in experiment [5] (Time 15 min); 0.49 nM in experiment [5] (Time 30 min). Further, the IC50 amounted to 0.32 nM in experiment [5] (Time 60 min); 0.26 nM in experiment [5] (Time 90 min); 0.2 nM in experiment [5] (Time 120 min); 0.16 nM in experiment [5] (Time 240 min); 0.098 nM in experiment [5] (Time 1440 min); 28 nM in experiment [6].
On to `CCOc1cc(F)c(Cn2nc(-c3ncc(OCCCO)c(Nc4ccncc4Cl)n3)c3ccccc32)c(F)c1` [Example 2-1-6, 3-{[4-[(3-chloropyridin-4-yl)amino]-2-[1-(4-ethoxy-2,6-difluorobenzyl)-1H-indazol-3-yl]pyrimidin-5-yl}oxy)propan-1-ol], for which the IC50 came out at 8.3 nM in experiment [1]; 5900 nM in experiment [2]; 120 nM in experiment [3]; 58 nM in experiment [4]; 1.7 nM in experiment [5] (Time 15 min); 0.87 nM in experiment [5] (Time 30 min). The IC50 turned out to be 0.85 nM in experiment [5] (Time 60 min); 1.2 nM in experiment [5] (Time 90 min); 0.38 nM in experiment [5] (Time 120 min); 0.31 nM in experiment [5] (Time 240 min); 0.2 nM in experiment [5] (Time 1440 min); 45 nM in experiment [6].
